For data set [1], the target named is E3 ubiquitin-protein ligase Mdm2 (Homo sapiens, UniProt Q00987). Nature of the data set: Binding affinity to HDM2 (unknown origin).
Data set [2] in a line: Lipophilicity, logD of the compound at pH 7 by RP-HPLC analysis. In kind it is physicochemical. The note with it: buffer.
Data set [3] has as its target Tumour suppressor p53/oncoprotein Mdm2 (Homo sapiens, UniProt Q00987). Briefly: Inhibition of HDM2/p53 interaction in human HCT-116 cells expressing p53RE/Bla incubated for 16 hrs by beta-lactamase reporter gene assay. In kind it is cell-based.
The nature of data set [4]: Selectivity index, ratio of IC50 for inhibition of HDM2/p53 interaction in human HCT-116 cells expressing p53/Bla to IC50 for inhibition of N-terminal thioredoxin-His6 tagged HDM2 (17 to 125 residues)/p53 protein-protein interaction (unknown origin). In kind it is cell-based.
A short description of data set [5]: Mean residence time in rat. In kind it is ADME. The note with it: in vivo.
A short description of data set [6]: Clearance in rat plasma. In kind it is ADME, cell-free.
A short description of data set [7]: Oral bioavailability in rat. In kind it is ADME, organism-based. The note with it: in vivo.
In data set [8] the test system is HCT-116. Nature of the data set: cells. The note with it: Homo sapiens, HCT-116, 72 h.
Data set [9] is described as follows: Unbound clearance in dog. In kind it is ADME, Canis lupus familiaris. Particulars: in vivo.
Data set [10] is described as follows: Mean residence time in dog. In kind it is ADME, Canis lupus familiaris. Particulars: in vivo.
Data set [11] can be described thus: Bioavailability in dog. In kind it is ADME, organism-based, Canis lupus familiaris. Particulars: in vivo.
The nature of data set [12]: Unbound clearance in rat. In kind it is ADME. Particulars: in vivo.
The nature of data set [13]: Bioavailability in rat. In kind it is ADME, organism-based. Particulars: in vivo.
A short description of data set [14]: Intrinsic clearance in rat hepatocytes. In kind it is ADME, cell-based, Hepatocyte. The note with it: read-out: CLH.
The nature of data set [15]: Intrinsic clearance in dog hepatocytes. In kind it is ADME, cell-based, Canis lupus familiaris, Hepatocyte. The note with it: read-out: CLH.
Data set [16] can be described thus: Intrinsic Clearance in rhesus monkey hepatocytes. In kind it is ADME, cell-based, Macaca mulatta, Hepatocyte. The note with it: read-out: CLH.
A short description of data set [17]: Plasma protein binding in rat. In kind it is ADME, cell-free. Particulars: read-out: PPB (converted).
Data set [18] in a line: Plasma protein binding in dog. In kind it is ADME, cell-free, Canis lupus familiaris. Particulars: read-out: PPB (converted).
A short description of data set [19]: Plasma protein binding in rhesus monkey. In kind it is ADME, cell-free, Macaca mulatta. Particulars: read-out: PPB (converted).
Data set [20] in a line: Clearance in rat plasma at 1 mg/kg, po or 0.5 mg/kg, iv. In kind it is ADME, organism-based.
Data set [21] can be described thus: Clearance in dog plasma at 0.5 mg/kg, po or 0.25 mg/kg, iv. In kind it is ADME, organism-based, Canis lupus familiaris.
Data set [22] is described as follows: Clearance in rhesus monkey plasma at 0.5 mg/kg, iv. In kind it is ADME, organism-based, Macaca mulatta.
Data set [23] in a line: Volume of distribution in rat at 1 mg/kg, po or 0.5 mg/kg, iv. Particulars: in vivo. In kind it is ADME, organism-based.
The nature of data set [24]: Volume of distribution in dog at 0.5 mg/kg, po or 0.25 mg/kg, iv. In kind it is ADME, organism-based, Canis lupus familiaris. Particulars: in vivo.
Data set [25] in a line: Volume of distribution in rhesus monkey at 0.5 mg/kg, iv. The note with it: in vivo. In kind it is ADME, organism-based, Macaca mulatta.
Data set [26] is described as follows: Terminal half life in rat at 1 mg/kg, po or 0.5 mg/kg, iv. In kind it is ADME, organism-based. Particulars: in vivo, read-out: beta t1/2 (converted).
The nature of data set [27]: Terminal half life in dog at 0.5 mg/kg, po or 0.25 mg/kg, iv. In kind it is ADME, organism-based, Canis lupus familiaris. The note with it: in vivo, read-out: beta t1/2 (converted).
Data set [28] can be described thus: Terminal half life in rhesus monkey at 0.5 mg/kg, iv. In kind it is ADME, organism-based, Macaca mulatta. The note with it: in vivo, read-out: beta t1/2 (converted).
The nature of data set [29]: Bioavailability in rat at 1 mg/kg, po or 0.5 mg/kg, iv. In kind it is ADME, organism-based. The note with it: in vivo.
A short description of data set [30]: Bioavailability in dog at 0.5 mg/kg, po or 0.25 mg/kg, iv. Particulars: in vivo. In kind it is ADME, organism-based, Canis lupus familiaris.
The nature of data set [31]: Intrinsic clearance in human hepatocytes. In kind it is ADME, cell-based, Hepatocyte. Particulars: read-out: CLH.
A short description of data set [32]: Plasma protein binding in human. In kind it is ADME, cell-free. Particulars: read-out: PPB (converted).
The target of data set [33] is T1, Cytochrome P450 3A4 (Homo sapiens, UniProt P08684). Briefly: Inhibition of CYP3A4 (unknown origin). In kind it is ADME.
T1 sequence (P08684 whole entry): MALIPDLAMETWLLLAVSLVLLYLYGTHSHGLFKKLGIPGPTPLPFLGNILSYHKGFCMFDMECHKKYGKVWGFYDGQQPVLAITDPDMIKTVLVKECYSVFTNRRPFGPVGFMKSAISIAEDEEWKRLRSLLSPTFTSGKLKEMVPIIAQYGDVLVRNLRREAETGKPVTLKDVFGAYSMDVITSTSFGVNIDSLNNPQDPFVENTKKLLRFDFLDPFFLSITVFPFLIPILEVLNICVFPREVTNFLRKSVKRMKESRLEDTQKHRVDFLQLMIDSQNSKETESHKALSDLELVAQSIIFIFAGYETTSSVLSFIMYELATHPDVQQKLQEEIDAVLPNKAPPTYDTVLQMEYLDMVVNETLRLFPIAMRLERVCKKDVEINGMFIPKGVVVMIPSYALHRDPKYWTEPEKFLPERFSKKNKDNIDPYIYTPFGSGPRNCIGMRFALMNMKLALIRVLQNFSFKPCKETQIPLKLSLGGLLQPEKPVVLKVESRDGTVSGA
Data set [34] addresses Cytochrome P450 2C9 (Homo sapiens, UniProt P11712). Nature of the data set: Inhibition of CYP2C9 (unknown origin). In kind it is ADME.
For data set [35], the target named is Cytochrome P450 2D6 (Homo sapiens, UniProt P10635). Briefly: Inhibition of CYP2D6 (unknown origin). In kind it is ADME.
Chain of Cytochrome P450 2D6 (P10635 whole entry): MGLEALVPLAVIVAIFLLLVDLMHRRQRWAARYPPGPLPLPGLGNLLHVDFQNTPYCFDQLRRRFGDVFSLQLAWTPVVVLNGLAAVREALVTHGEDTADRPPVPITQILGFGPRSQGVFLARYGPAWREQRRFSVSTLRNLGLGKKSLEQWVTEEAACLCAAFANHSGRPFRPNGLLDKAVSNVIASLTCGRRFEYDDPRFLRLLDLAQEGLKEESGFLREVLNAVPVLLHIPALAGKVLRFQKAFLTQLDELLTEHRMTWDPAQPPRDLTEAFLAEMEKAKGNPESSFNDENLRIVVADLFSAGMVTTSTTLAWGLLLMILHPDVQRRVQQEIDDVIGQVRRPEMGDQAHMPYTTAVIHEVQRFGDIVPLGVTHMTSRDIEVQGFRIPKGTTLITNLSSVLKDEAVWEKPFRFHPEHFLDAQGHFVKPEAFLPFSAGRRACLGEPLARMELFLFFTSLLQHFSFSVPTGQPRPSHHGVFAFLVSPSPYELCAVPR
Data set [36] deals with T2, Cytochrome P450 2C8 (Homo sapiens, UniProt P10632).
T2 sequence (P10632 whole entry): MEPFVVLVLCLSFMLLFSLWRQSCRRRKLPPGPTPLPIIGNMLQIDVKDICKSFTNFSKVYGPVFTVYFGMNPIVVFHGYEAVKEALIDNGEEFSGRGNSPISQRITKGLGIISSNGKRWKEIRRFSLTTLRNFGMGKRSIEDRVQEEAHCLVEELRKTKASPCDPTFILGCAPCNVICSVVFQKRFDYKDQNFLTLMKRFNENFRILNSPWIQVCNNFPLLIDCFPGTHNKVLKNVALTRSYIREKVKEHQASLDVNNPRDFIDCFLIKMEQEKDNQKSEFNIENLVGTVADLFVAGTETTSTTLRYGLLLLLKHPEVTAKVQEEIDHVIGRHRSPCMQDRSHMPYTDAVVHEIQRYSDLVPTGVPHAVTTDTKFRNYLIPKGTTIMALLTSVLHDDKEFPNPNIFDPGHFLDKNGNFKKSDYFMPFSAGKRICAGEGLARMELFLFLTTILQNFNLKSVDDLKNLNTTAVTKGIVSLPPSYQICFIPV
Nature of the data set: Inhibition of CYP2C8 (unknown origin). In kind it is ADME.

The target in data set [37] is T1, Cytochrome P450 3A4. Nature of the data set: Activation of CYP3A4 (unknown origin). In kind it is ADME.
The test system of data set [38] is SJSA-1. Nature of the data set: Antitumor activity against human SJSA-1 cells xenografted in po dosed CD-1 nu/nu mouse assessed as tumor growth inhibition administered once daily for 7 consecutive days followed by 2 weeks off dosing schedule. In kind it is functional, organism-based. Particulars: time 3.0 weeks. For orientation: Xenograft models place foreign cells or tissue in a host animal.

The nature of data set [39]: Toxicity in CD-1 mouse xenografted with human SJSA-1 cells assessed as body weight loss at 50 to 100 mg/kg, po administered once daily for 7 consecutive days followed by 2 weeks off dosing schedule. In kind it is organism-based. Particulars: in vivo, 504 h, dose 50-100 mg/kg, time 3 weeks.
Data set [40] deals with Mus musculus. Nature of the data set: In vivo activation of p53 pathway in human SJSA-1 cells xenografted in po dosed CD-1 nu/nu mouse assessed as induction of p21 mRNA expression measured after 6 hrs. The note with it: dose 100.0 mg/kg. In kind it is functional, organism-based.
The target in data set [41] is Voltage-gated inwardly rectifying potassium channel KCNH2 (Homo sapiens, UniProt Q12809). Briefly: Inhibition of human ERG.
Chain of Voltage-gated inwardly rectifying potassium channel KCNH2 (Q12809 whole entry): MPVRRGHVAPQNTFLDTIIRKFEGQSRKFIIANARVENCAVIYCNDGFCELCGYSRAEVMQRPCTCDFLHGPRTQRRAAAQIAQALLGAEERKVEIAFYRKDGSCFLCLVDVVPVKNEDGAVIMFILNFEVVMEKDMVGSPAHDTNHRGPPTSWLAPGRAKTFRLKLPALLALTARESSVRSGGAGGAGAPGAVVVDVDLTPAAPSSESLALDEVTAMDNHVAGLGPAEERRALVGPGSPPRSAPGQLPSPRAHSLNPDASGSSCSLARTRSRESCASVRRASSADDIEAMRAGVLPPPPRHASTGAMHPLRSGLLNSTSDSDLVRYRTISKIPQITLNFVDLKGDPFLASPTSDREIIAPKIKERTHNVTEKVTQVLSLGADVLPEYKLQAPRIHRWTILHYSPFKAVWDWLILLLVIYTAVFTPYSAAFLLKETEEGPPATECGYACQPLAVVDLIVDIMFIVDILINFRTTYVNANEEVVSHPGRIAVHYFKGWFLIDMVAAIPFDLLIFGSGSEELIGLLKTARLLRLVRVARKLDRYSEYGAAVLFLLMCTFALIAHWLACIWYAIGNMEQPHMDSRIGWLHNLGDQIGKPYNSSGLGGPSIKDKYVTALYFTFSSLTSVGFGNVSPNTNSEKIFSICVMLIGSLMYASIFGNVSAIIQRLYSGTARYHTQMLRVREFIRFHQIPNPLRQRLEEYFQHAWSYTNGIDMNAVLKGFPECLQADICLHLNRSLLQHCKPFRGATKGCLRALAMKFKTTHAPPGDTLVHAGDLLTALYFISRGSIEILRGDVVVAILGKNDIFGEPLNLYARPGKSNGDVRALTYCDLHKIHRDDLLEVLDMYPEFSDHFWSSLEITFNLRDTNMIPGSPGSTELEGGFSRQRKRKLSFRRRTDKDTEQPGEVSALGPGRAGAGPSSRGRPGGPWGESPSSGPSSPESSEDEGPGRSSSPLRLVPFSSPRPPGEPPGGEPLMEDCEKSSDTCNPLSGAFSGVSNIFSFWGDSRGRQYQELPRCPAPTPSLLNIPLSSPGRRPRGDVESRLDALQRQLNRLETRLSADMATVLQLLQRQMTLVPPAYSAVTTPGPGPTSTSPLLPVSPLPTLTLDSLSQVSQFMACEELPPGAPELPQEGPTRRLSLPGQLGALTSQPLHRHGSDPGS

Chain of E3 ubiquitin-protein ligase Mdm2 (Q00987 whole entry): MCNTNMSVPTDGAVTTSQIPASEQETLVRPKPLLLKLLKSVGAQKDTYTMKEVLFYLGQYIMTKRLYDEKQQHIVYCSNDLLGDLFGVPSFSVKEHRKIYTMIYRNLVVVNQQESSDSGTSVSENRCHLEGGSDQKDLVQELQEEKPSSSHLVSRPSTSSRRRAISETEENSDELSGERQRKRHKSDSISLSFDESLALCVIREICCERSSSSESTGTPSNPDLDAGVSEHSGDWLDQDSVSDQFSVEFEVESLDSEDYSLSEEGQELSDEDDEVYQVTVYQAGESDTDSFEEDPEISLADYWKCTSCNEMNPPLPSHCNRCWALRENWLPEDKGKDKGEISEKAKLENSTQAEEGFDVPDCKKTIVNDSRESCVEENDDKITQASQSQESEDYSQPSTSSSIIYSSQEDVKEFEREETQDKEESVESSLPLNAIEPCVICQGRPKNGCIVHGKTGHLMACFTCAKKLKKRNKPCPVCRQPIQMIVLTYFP
Chain of Cytochrome P450 2C9 (P11712 whole entry): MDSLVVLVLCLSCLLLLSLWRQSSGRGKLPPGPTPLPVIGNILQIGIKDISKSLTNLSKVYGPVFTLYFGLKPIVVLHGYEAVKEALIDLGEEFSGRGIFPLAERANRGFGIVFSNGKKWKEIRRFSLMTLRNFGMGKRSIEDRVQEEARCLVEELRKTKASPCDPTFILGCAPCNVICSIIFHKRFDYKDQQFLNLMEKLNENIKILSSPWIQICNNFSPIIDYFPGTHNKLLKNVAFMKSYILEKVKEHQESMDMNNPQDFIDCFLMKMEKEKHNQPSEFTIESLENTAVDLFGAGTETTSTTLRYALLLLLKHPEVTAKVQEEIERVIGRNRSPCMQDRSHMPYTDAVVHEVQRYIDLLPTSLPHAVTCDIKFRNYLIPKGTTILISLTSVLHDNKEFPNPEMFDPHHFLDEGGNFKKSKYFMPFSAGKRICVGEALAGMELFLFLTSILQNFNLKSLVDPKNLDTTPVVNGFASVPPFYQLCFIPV
Chain of Tumour suppressor p53/oncoprotein Mdm2 (P04637 whole entry, the tested form may be a part): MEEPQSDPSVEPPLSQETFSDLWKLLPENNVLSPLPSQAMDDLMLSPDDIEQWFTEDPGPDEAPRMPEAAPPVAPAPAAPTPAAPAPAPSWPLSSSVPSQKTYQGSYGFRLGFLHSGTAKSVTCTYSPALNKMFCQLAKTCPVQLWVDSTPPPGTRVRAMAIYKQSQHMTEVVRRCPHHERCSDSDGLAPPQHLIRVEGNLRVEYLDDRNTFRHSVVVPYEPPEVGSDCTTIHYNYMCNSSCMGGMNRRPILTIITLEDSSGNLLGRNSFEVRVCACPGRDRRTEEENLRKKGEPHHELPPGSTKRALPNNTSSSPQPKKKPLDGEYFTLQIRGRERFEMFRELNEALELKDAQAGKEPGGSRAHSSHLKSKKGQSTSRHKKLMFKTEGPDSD
Chain of Tumour suppressor p53/oncoprotein Mdm2 (Q00987 whole entry, the tested form may be a part): as the sequence (Q00987 whole entry) above

The molecule `CCC[C@H]1N(C(=O)c2ncccc2C(F)(F)F)CCC[C@@]1(Oc1csc(C(F)(F)F)c1)C(=O)N1CCC(O)(c2ccccc2O[C@H](C)CCC2(C(=O)O)CCC2)CC1` gave a Kd in [1] of 3.8 nM.

In data set [2], `C[C@@H](Nc1nc(-c2noc(=O)[nH]2)nc2nc(N3CCOC[C@H]3c3ccccc3)n(C[C@H]3CC[C@H](C)CC3)c12)C1CCC1` came in with a logD of 3.27. For the same molecule, the IC50 was determined as 64 nM in data set [3] and 446 nM in [8]. Moreover, in [4], the Ratio IC50 was 100. This molecule returned an MRT in [5] of 0.73 h. Further, the clearance in data set [6] worked out at 73 mL/min/kg. The molecule also registered a bioavailability in data set [7] of 2%.

In turn, `C[C@H]1CC[C@H](Cn2c(N3CCO[C@@H]4CCC[C@H]43)nc3cc(-c4noc(=O)[nH]4)nc(-c4cncc(Cl)c4)c32)CC1` gave a logD in [2] of 2.46. Further, the figures for the CL free in data set [9] and in [12] were 122 mL/min/kg and 5214 mL/min/kg, respectively. Also, the MRT worked out at 5.9 h in data set [10] and 0.6 h in data set [5]. The bioavailability in data set [11] was 86%; in [13], 24%; in [29] it was 24%; in data set [30], 86%. Moreover, the CLint scaled in data set [14] amounted to 251 mL/min/kg; in data set [15], 78 mL/min/kg; in data set [16], 70 mL/min/kg; in [31], 58 mL/min/kg. Also, the fraction unbound in data set [17] was 0.007; in data set [18], 0.009; in data set [19] it was 0.006; in data set [32] it was 0.008. In addition, the clearance in data set [20] came to 36 mL/min/kg; in data set [21] it was 1.4 mL/min/kg; in data set [22], 12.4 mL/min/kg. Besides, the Vd in data set [23] was determined as 1.3 L/kg; in data set [24], 0.39 L/kg; in data set [25] it was 0.91 L/kg. Also, the half-life in [26] is 3 h; in [27], 4.2 h; in data set [28], 1.6 h. Besides, the IC50 in [33] is > 50000 nM; in data set [34], 31000 nM; in data set [35], > 50000 nM; in data set [36], 800 nM; in [41], 12000 nM; in [8], 122 nM. Further, the EC50 in [37] was > 30000 nM. Also, the Activity result in [38] is “Dose-Dependent Effect”; in data set [39], “Non-Toxic”; in [40], “Dose-Dependent Effect”.

A word on the Kd: it is the constant that tells how readily two partners part at equilibrium. By logD is commonly meant the decadic logarithm of the distribution of all forms, ionised or not, between an organic phase and buffer at a given pH. Broadly, the IC50 is the concentration that gives 50% inhibition. A word on the MRT: it is a mean duration of stay, worked out from the concentration-time curve. By bioavailability is commonly meant dose-corrected exposure relative to a reference, in per cent. The term EC50 denotes the concentration needed to bring the measured effect to its halfway point.
